Experiments:
[1] = Inhibition of Adenylate Cyclase in Rat adipocytes; format: cell-based
Adenosine receptor A1 = target: T1, Adenosine receptor A1 (Rattus norvegicus, UniProt P25099)
T1 sequence (P25099 whole entry): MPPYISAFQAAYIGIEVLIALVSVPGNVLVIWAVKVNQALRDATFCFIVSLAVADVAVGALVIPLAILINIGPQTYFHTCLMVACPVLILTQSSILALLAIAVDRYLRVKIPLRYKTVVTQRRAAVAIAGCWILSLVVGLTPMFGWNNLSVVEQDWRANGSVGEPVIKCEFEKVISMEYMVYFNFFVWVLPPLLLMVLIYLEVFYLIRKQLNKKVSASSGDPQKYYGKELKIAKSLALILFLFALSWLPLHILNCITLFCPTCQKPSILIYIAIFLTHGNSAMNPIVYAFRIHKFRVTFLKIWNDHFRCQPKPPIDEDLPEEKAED

Adenosine A2 receptor = Adenosine A2 receptor (Rattus norvegicus, UniProt P29276+P30543)

SMILES | IC50 [1] | Ki (Adenosine receptor A1) | Ki (Adenosine A2 receptor)
OC[C@H]1O[C@@H](n2cnc3c(NC4CC4)ncnc32)[C@H](O)[C@@H]1O |  | 2.1 nM | 
Cn1c(=O)c2nc(C3CCCCC3)[nH]c2n(C)c1=O | 2.5 nM |  | 4.7 nM
OC[C@H]1O[C@@H](n2cnc3c(NC4CCCCC4)ncnc32)[C@H](O)[C@@H]1O | 27 nM |  | 
OC[C@H]1O[C@@H](n2cnc3c(NCc4ccccc4)ncnc32)[C@H](O)[C@@H]1O [N6-BENZYLADENOSINE] | 2200 nM |  | 350 nM
OC[C@H]1O[C@@H](n2cnc3c(NC4CCCC4)ncnc32)[C@H](O)[C@@H]1O [N6-CYCLOPENTYLADENOSINE] | 19.2 nM |  | 1.1 nM
OC[C@H]1O[C@@H](n2cnc3c(Nc4ccccc4)ncnc32)[C@H](O)[C@@H]1O [N6-PHENYLADENOSINE] | 190 nM |  | 110 nM
Cn1c(=O)c2nc[nH]c2n(C)c1=O [THEOPHYLLINE] | 940 nM |  | 

The next lines start with the values.

IC50 [1] | Ki (Adenosine receptor A1) | Ki (Adenosine A2 receptor) | SMILES
42 nM |  |  | Cn1c(=O)c2nc(C3CC3)[nH]c2n(C)c1=O
890 nM |  |  | Cn1c(=O)c2nc(Cc3ccccc3)[nH]c2n(C)c1=O
 |  | 157 nM | CCCn1c(=O)c2nc([C@H](C)Cc3ccccc3)[nH]c2n(CCC)c1=O
 |  | 644 nM | CCCn1c(=O)c2nc(C(C)Cc3ccccc3)[nH]c2n(CCC)c1=O (stereo not given)
 |  | 848 nM | CCCn1c(=O)c2nc([C@@H](C)Cc3ccccc3)[nH]c2n(CCC)c1=O
0.47 nM | 0.46 nM |  | Cn1c(=O)c2nc(C3CCCC3)[nH]c2n(C)c1=O [8-CYCLOPENTYLTHEOPHYLLINE]
37 nM |  | 20.9 nM | Cn1c(=O)c2nc(-c3ccccc3)[nH]c2n(C)c1=O [8-PHENYL THEOPHYLLINE]

— ChEMBL document CHEMBL1125020 (J Med Chem, 1990)
